Results as given in doi:10.1101/2023.07.31.551370, “A diversified, widespread microbial gene cluster encodes homologs of methyltransferases involved in methanogenesis” (bioRxiv, 2023).

Columns and labels:
ClMlp2 [1] = target: T1, ClMlp2; assay: UV-visible spectroscopy, loss of methylcob(III)alamin absorbance at […] nm, steady-state kinetics; format: biochemical, Clostridium ljungdahlii; settings: co-substrate methylcob(III)alamin (non-physiological methyl donor); strictly anoxic nitrogen atmosphere; reverse of the hypothesized physiological reaction; fit with substrate inhibition; substrate in
T1 construct: gene mlp2; recombinant ClMlp2

ClMlp2 [2] = system: T1, ClMlp2; assay: as above; format: biochemical, Clostridium ljungdahlii; settings: co-substrate methylcob(III)alamin (non-physiological methyl donor); strictly anoxic nitrogen atmosphere; reverse of the hypothesized physiological reaction; fit with substrate inhibition; read-out: apparent KM

[SeH2] [selenide]
KI (selenide substrate inhibition constant) (ClMlp2 [1]): 3.83 mM
Km (ClMlp2 [2]): 79.8 µM
